{"source": "patent US4795754A", "about": "“3-(1H-tetrazol-5-y1)oxanilic acid and salts thereof and pharmaceutical compositions containing them” (Wakamoto Pharmaceutical Co., Ltd., priority 1986, dated 1989)", "key": {"Dog": {"test_system": "Dog", "experiment": "Acute toxicity test, dog (Test 5)", "type": "in vivo", "settings": "Female, p.o. (capsule); 14 days observation", "method": "(§1) MTCC was administered to ddY Mice (body weight 20 to 23 g; 10 animals per test group) and Wistar rats (body weight 110 to 130 g; 10 animals per test group) through intravenous and oral routes and it was also administered to Beagle dogs (7 months old; 3 animals per test group) through oral route.\n(§2) MTCC was administered to rats and mice in the form of a solution thereof in 0.1 M phosphate buffer in the case of intravenous administration and in the form of a suspension in 0.5% CMC-Na in the case of oral administration. While it was orally administered to dogs in the form of a capsule filled with the original powder."}, "[1]": {"experiment": "Acute toxicity test, dog (Test 5)", "type": "in vivo", "settings": "dog, in vivo, po; Male, p.o. (capsule); 14 days observation", "method": "as §1, §2"}, "[2]": {"test_system": "metachromatic cells in nasal mucus", "experiment": "Degranulation inhibitory effect on metachromatic cells in nasal mucus, experimental allergic rhinitis (Test 2)", "type": "in vivo, Wistar rats", "settings": "intranasal 0.5 ml/100 g, 5 minutes before antigen, average of 5", "method": "This test was carried out to examine the degranulation inhibitory effect of the compounds of the present invention on the metachromatic cells in nasal mucus originated from a rat suffering from experimental allergic rhinitis.\nWistar rats were passively sensitized by subcutaneously injecting anti-Cryptomeria Japonica-Ascaris serum of rat. After anesthetizing the rat with pentobarbital sodium, they were fixed while lying them on their back and the cervixes thereof were subjected to median incision. A polyethylene tube having an outer diameter of 1 mm was inserted into the internal nares of each rat through the incised portion of trachea, one end thereof was connected to a perfusion pump and sterilized physiologic saline warmed at 37° C. was perfused therethrough at a flow rate of 0.25 ml/min. 1 ml of the antigen extracted from pollen of Japanese cedar (10 micro liter per ml) was sprayed in both internal nares by means of an atomizer for internal nares and the perfusate delivered from the internal nares was recovered for 20 minutes. The number of degranulated cells per 100 metachromatic cells present in the recovered samples were scored and the value was regarded as that of the control (Nc).\nThe compound to be tested were dissolved in 0.15M phosphate buffer so as to obtain a solution of a desired concentration, each solution was administered through both of the interanal nares in an amount of 0.5 ml/100 g body weight, at a time 5 minutes before the spray of the antigen and the number of degranulated cells (Nt) was scored according to the same manner as described above. The rate of inhibitory effect on the degranulation (Rd) was estimated from the following relation: [formula] Each experimental results is the average of 5 measurements."}, "[3]": {"experiment": "Water solubility / hydrophilicity (statement in words)", "type": "physicochemical"}, "[4]": {"test_system": "rats suffering from experimental allergic rhinitis", "experiment": "Nasal mucus secretion inhibitory effect, experimental allergic rhinitis (Test 3)", "type": "in vivo, Wistar rats", "settings": "brilliant blue in nasal perfusate, average of 5", "excerpt": "This test was effected to examine the nasal mucus secretion inhibitory effect of the compounds according to the present invention on the rats suffering from experimental allergic rhinitis.\nWistar rats were passively sensitized by subcutaneously injecting anti-Cryptomeria Japonica-As serum of rat. After anesthetizing the rat with pentobarbital sodium, they were fixed while lying them on their back and the cervixes thereof were subjected to median incision. A polyethylene tube having an outer diameter of 1 mm was inserted into the internal nares of each rat through the incised portion of trachea, one end thereof was connected to a perfusion pump and sterilized physiologic saline warmed at 37° C. was perfused therethrough at a flow rate of 0.25 ml/min.\nThen, 0.5 ml/100 g body weight of 4% brilliant blue was injected into the rat through the caudal vein, then the perfusate was recovered for 10 minutes and the concentration of the dye was determined which was regarded as the Ag (-) value of the control. 1 ml of the antigen extracted from pollen of Japanese cedar (1 micro liter per ml) was sprayed in both internal nares by means of an atomizer for internal nares, the antigen remaining in the internal nares was washed out with physiologic saline and the perfusate was then recovered for 30 minutes and the concentration of the dye was determined to estimate Ag (+) value of the control.\nThe compound to be tested were dissolved in 0.15 M phosphate buffer so as to form a solution of a desired concentration. Each of the solutions thus prepared was sprayed in both internal nares in an amound of 0.5 ml/100g body weight at the time of 5 minutes before the spray of the antigen and the concentration of the dye was determined on each sample. In this connection, the measurement of the dye concentration was effected according to the spectrophotometric method developed by M. Kojima et al. (Allergy, 1986, Vol. 35, pp. 180-187)."}, "Rat": {"test_system": "Rat", "experiment": "Acute toxicity test, rat (Test 5)", "type": "in vivo", "settings": "Female, 14 days observation", "method": "as §1, §2"}, "[5]": {"experiment": "Acute toxicity test, rat (Test 5)", "type": "in vivo", "settings": "rat, in vivo, Male, 14 days observation", "method": "as §1, §2"}, "[6]": {"test_system": "allergic conjunctivitis of guinea pigs", "experiment": "Allergic conjunctivitis, visual observation of inflammatory reaction of the eye (Test 4)", "type": "in vivo, Hartley guinea pigs", "settings": "MTCC 10^-3 g/ml, DSCG 2×10^-2 g/ml, dropped on the eye after antigen", "method": "(§3) This test was carried out to estimate the therapeutic effect of the compounds according to the present invention on the allergic conjunctivitis of guinea pigs.\n(§4) Hartley guinea pigs were passively sensitized by intravenously injecting 1 ml of anti-DNP-As serum. After 8 days, an antigen solution (DNP-BSA: 2.5 mg/ml) was dropped on the sinistral eye once a minute over 10 minutes, then the lacrimal fluid was collected with filter paper over 10 minutes while the inflammatory reaction of the eye was visually observed during the collection of the lacrimal fluid. At 10 minutes after the completion of the dropping of the antigen solution, the compounds to be examined were dropped on the eye once a minute over 10 minutes and thereafter the collection of the lacrimal fluid and the visual observation of the inflammatory reaction of the eye were likewise effected. Then, the amount of histamine present in the collected lacrimal fluid was determined according to the Komatsu's method (Michitoshi KOMATSU, Allergy, 1978, Vol. 27, pp. 67-74).\n(§5) In addition, the concentration of MTCC used was 10^-3 g/ml and that of DSCG was 2×10^-2 g/ml."}, "Mouse": {"test_system": "Mouse", "experiment": "Acute toxicity test, mouse (Test 5)", "type": "in vivo", "settings": "Female, 14 days observation", "method": "as §1, §2"}, "[7]": {"experiment": "Acute toxicity test, mouse (Test 5)", "type": "in vivo", "settings": "mouse, in vivo, Male, 14 days observation", "method": "as §1, §2"}, "[8]": {"test_system": "allergic conjunctivitis of guinea pigs", "experiment": "Allergic conjunctivitis, histamine content in lacrimal fluid (Test 4)", "type": "in vivo, Hartley guinea pigs", "method": "as §3, §4, §5"}, "[9]": {"settings": "Japanese Journal of Pharmacology, 1982, Vol. 32, pp. 689-697; cited from earlier work"}, "[10]": {"settings": "After Dropping of Antigen (before compound)"}, "[11]": {"settings": "After Dropping of Compound, MTCC 10^-3 g/ml, DSCG 2×10^-2 g/ml"}}, "note": "Like-named read-outs stand apart in the source and are kept apart here.", "data": [{"smiles": "O=C(O)C(=O)Nc1cccc(-c2nnn[nH]2)c1", "note": "[MTCC, 3-(1H-tetrazol-5-yl)oxanilic acid]", "values": [{"measurement": "Acute Toxicity LD50", "setting": "Dog", "result": "> 2000", "unit": "mg/kg"}, {"measurement": "LD50 at 336 h", "setting": "[1]", "result": "> 2000", "unit": "mg/kg"}, {"measurement": "Rate of Inhibition of Degranulation Rd (%)", "setting": "[2]; Concn. 10^-4 g/ml", "result": 94.3, "unit": "%"}, {"measurement": "Rate of Inhibition of Degranulation Rd (%)", "setting": "[2]; Concn. 10^-5 g/ml", "result": 75.1, "unit": "%"}, {"measurement": "Rate of Inhibition of Degranulation Rd (%)", "setting": "[2]; Concn. 10^-6 g/ml", "result": 33.0, "unit": "%"}, {"measurement": "Rate of Inhibition of Degranulation Rd (%)", "setting": "[2]; Concn. 10^-7 g/ml", "result": 15.0, "unit": "%"}, {"measurement": "Rate of Inhibition of Degranulation Rd (%)", "setting": "[2]; Concn. 10^-8 g/ml", "result": -1.4, "unit": "%"}, {"measurement": "Water solubility (in words)", "setting": "[3]", "result": "hydrophyilic or soluble in water"}, {"measurement": "Dye Concentration", "setting": "[4]; Concn. 10^-4 g/ml", "result": 0.64, "unit": "micro gr./ml"}, {"measurement": "Dye Concentration", "setting": "[4]; Concn. 10^-5 g/ml", "result": 0.85, "unit": "micro gr./ml"}, {"measurement": "Dye Concentration", "setting": "[4]; Concn. 10^-6 g/ml", "result": 0.99, "unit": "micro gr./ml"}, {"measurement": "Dye Concentration", "setting": "[4]; Concn. 10^-7 g/ml", "result": 1.37, "unit": "micro gr./ml"}, {"measurement": "Dye Concentration", "setting": "[4]; Concn. 10^-8 g/ml", "result": 1.74, "unit": "micro gr./ml"}, {"measurement": "Acute Toxicity LD50", "setting": "Rat; i.v.", "result": "> 180", "unit": "mg/kg"}, {"measurement": "Acute Toxicity LD50", "setting": "Rat; p.o.", "result": "> 2000", "unit": "mg/kg"}, {"measurement": "LD50 at 336 h", "setting": "[5]; iv", "result": "> 180", "unit": "mg/kg"}, {"measurement": "LD50 at 336 h", "setting": "[5]; po", "result": "> 2000", "unit": "mg/kg"}, {"measurement": "Therapeutic effect on swelling and congestion of the conjunctiva (visual observation)", "setting": "[6]", "result": "excellent therapeutic effect"}, {"measurement": "Acute Toxicity LD50", "setting": "Mouse; i.v.", "result": "> 225", "unit": "mg/kg"}, {"measurement": "Acute Toxicity LD50", "setting": "Mouse; p.o.", "result": "> 2000", "unit": "mg/kg"}, {"measurement": "LD50 at 336 h", "setting": "[7]; iv", "result": "> 225", "unit": "mg/kg"}, {"measurement": "LD50 at 336 h", "setting": "[7]; po", "result": "> 2000", "unit": "mg/kg"}, {"measurement": "Histamine Content in Lacrimal Fluid", "setting": "[8]; [10]", "result": 6.3, "unit": "ng"}, {"measurement": "Histamine Content in Lacrimal Fluid", "setting": "[8]; [11]", "result": 2.4, "unit": "ng"}, {"measurement": "Histamine content in the lacrimal fluid (in words)", "setting": "[8]; by the administration of MTCC, 10^-3 g/ml", "result": "substantially reduced"}]}, {"smiles": "CCCCOC(=O)C(=O)Nc1cccc(-c2nnn[nH]2)c1", "note": "[MTB, Butyl 3(1H--tetrazol5-yl)oxanilate]", "values": [{"measurement": "Water solubility (in words)", "setting": "[9]", "result": "hydrophobic or less soluble in water"}]}, {"smiles": "O=C(O)c1cc(=O)c2c(OCC(O)COc3cccc4oc(C(=O)O)cc(=O)c34)cccc2o1", "note": "[DSCG, Disodium Chromoglycate, reference compound]", "values": [{"measurement": "Rate of Inhibition of Degranulation Rd (%)", "setting": "[2]; Concn. 10^-4 g/ml", "result": 90.3, "unit": "%"}, {"measurement": "Rate of Inhibition of Degranulation Rd (%)", "setting": "[2]; Concn. 10^-5 g/ml", "result": 71.5, "unit": "%"}, {"measurement": "Rate of Inhibition of Degranulation Rd (%)", "setting": "[2]; Concn. 10^-6 g/ml", "result": 39.4, "unit": "%"}, {"measurement": "Rate of Inhibition of Degranulation Rd (%)", "setting": "[2]; Concn. 10^-7 g/ml", "result": 8.1, "unit": "%"}, {"measurement": "Rate of Inhibition of Degranulation Rd (%)", "setting": "[2]; Concn. 10^-8 g/ml", "result": -1.7, "unit": "%"}, {"measurement": "Dye Concentration", "setting": "[4]; Concn. 10^-4 g/ml", "result": 0.65, "unit": "micro gr./ml"}, {"measurement": "Dye Concentration", "setting": "[4]; Concn. 10^-5 g/ml", "result": 0.89, "unit": "micro gr./ml"}, {"measurement": "Dye Concentration", "setting": "[4]; Concn. 10^-6 g/ml", "result": 1.01, "unit": "micro gr./ml"}, {"measurement": "Dye Concentration", "setting": "[4]; Concn. 10^-7 g/ml", "result": 1.44, "unit": "micro gr./ml"}, {"measurement": "Dye Concentration", "setting": "[4]; Concn. 10^-8 g/ml", "result": 1.77, "unit": "micro gr./ml"}, {"measurement": "Therapeutic effect on swelling and congestion of the conjunctiva (visual observation)", "setting": "[6]", "result": "relatively low therapeutic effect"}, {"measurement": "Histamine Content in Lacrimal Fluid", "setting": "[8]; [10]", "result": 6.7, "unit": "ng"}, {"measurement": "Histamine Content in Lacrimal Fluid", "setting": "[8]; [11]", "result": 6.4, "unit": "ng"}]}]}
